Assay type in all cases: biochemical
The target of test [1] is T1, Arabidopsis thaliana BIO3-BIO1 (BioDA) mutants (Arabidopsis thaliana, UniProt B0F481, V354L).
T1 construct: with the predicted N-terminal mitochondrial transit peptide removed; 6xHis-tag (N); thrombin cleavage site (N); made in house; host or cells: E. coli BL21 (DE3) bioA
The experiment in a line: BIO3-BIO1 mutant enzyme activity in the presence of herbicide, percentage inhibition (fluorometric DAPA assay). The following applies: read-out: percentage inhibition. In outline: (§1)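 Percentage inhibition compares activity at one of three herbicide concentrations against DMSO, from o-phthalaldehyde-derivatised DAPA fluorescence (ex 410, em 470 nm). Purified N-His BIO3-BIO1 variants (50 nM, E. coli-expressed) saw herbicide 10 min at 20 °C in pH 8.6 EPPS buffer, then 20 μM KAPA plus 100 μM spermidine for 75 min at 20 °C.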

The target in test [2] is T2, Arabidopsis thaliana BIO3-BIO1 (BioDA) mutants (Arabidopsis thaliana, UniProt B0F481, R797Q).
T2 construct: with the predicted N-terminal mitochondrial transit peptide removed; 6xHis-tag (N); thrombin cleavage site (N); made in house; host or cells: E. coli BL21 (DE3) bioA
The test is described as above. The following applies: read-out: percentage inhibition. The method in brief:
as §1

Test [3] addresses T3, Arabidopsis thaliana BIO3-BIO1 (BioDA) mutants (Arabidopsis thaliana, UniProt B0F481, T512I).
T3 construct: with the predicted N-terminal mitochondrial transit peptide removed; 6xHis-tag (N); thrombin cleavage site (N); made in house; host or cells: E. coli BL21 (DE3) bioA
The test is described as above. The following applies: read-out: percentage inhibition. In outline:
as §1

Test [4] concerns the target T4, Arabidopsis thaliana BIO3-BIO1 (BioDA) mutants (Arabidopsis thaliana, UniProt B0F481, Q517W).
T4 construct: with the predicted N-terminal mitochondrial transit peptide removed; 6xHis-tag (N); thrombin cleavage site (N); made in house; host or cells: E. coli BL21 (DE3) bioA
The test is described as above. The following applies: read-out: percentage inhibition. In outline: as §1

The target in test [5] is T5, Arabidopsis thaliana BIO3-BIO1 (BioDA) mutants (Arabidopsis thaliana, UniProt B0F481, Q517Y).
T5 construct: with the predicted N-terminal mitochondrial transit peptide removed; 6xHis-tag (N); thrombin cleavage site (N); made in house; host or cells: E. coli BL21 (DE3) bioA
The description is as above. The conditions noted are these: read-out: percentage inhibition. The method in brief:
as §1

The target of test [6] is T6, Arabidopsis thaliana BIO3-BIO1 (BioDA) mutants (Arabidopsis thaliana, UniProt B0F481, A609R).
T6 construct: with the predicted N-terminal mitochondrial transit peptide removed; 6xHis-tag (N); thrombin cleavage site (N); made in house; host or cells: E. coli BL21 (DE3) bioA
The description is as above. The conditions noted are these: read-out: percentage inhibition. In outline:
as §1

For test [7], the target named is T7, Arabidopsis thaliana BIO3-BIO1 (BioDA) mutants (Arabidopsis thaliana, UniProt B0F481, F348C).
T7 construct: with the predicted N-terminal mitochondrial transit peptide removed; 6xHis-tag (N); thrombin cleavage site (N); made in house; host or cells: E. coli BL21 (DE3) bioA
Described as above. The conditions noted are these: read-out: percentage inhibition. In outline: as §1

Test [8] concerns Ostreococcus tauri BioDA F332A. The experiment in a line: BioDA enzyme activity with DMSO or herbicide in vitro.
The subject of test [9] is Ostreococcus tauri BioDA A374D. The description is as above.
For test [10], the system named is Ostreococcus tauri BioDA P407A. Described as above.

The structures appear in SMILES notation.

By inhibition is commonly meant the change of the read-out against control, counted positive when it falls.

T4 sequence (B0F481 23-833 Q517W): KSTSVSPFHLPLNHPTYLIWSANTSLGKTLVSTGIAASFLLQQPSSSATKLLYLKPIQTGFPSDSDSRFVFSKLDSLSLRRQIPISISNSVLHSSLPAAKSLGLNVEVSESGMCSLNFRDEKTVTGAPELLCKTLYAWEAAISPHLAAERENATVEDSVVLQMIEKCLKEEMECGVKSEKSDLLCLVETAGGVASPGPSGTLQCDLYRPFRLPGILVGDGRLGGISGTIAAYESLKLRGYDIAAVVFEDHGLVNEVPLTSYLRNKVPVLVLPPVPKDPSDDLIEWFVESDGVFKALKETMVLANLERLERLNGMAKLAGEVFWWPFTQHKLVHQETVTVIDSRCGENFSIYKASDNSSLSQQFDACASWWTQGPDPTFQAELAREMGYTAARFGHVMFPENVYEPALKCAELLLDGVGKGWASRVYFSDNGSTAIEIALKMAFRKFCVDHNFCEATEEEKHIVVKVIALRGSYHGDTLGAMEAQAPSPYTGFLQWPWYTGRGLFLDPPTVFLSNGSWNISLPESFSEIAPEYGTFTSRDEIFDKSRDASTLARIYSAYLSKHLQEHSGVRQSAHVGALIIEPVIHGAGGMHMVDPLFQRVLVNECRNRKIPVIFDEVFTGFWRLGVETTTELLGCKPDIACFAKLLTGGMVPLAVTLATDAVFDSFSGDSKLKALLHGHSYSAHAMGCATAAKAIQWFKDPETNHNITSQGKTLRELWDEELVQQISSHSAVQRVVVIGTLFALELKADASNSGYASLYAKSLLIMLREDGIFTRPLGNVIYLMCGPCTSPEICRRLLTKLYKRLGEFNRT
T7 sequence (B0F481 23-833 F348C): as the sequence (B0F481 23-833 Q517W) above, with F326C, W495Q counted along it
T2 sequence (B0F481 23-833 R797Q): as the sequence (B0F481 23-833 Q517W) above, with W495Q, R775Q counted along it
T3 sequence (B0F481 23-833 T512I): as the sequence (B0F481 23-833 Q517W) above, with T490I, W495Q counted along it
T1 sequence (B0F481 23-833 V354L): as the sequence (B0F481 23-833 Q517W) above, with V332L, W495Q counted along it
T5 sequence (B0F481 23-833 Q517Y): as the sequence (B0F481 23-833 Q517W) above, with W495Y counted along it
T6 sequence (B0F481 23-833 A609R): as the sequence (B0F481 23-833 Q517W) above, with W495Q, A587R counted along it

Take `CCOC(=O)c1nn(-c2ccc3c(c2)OC(F)(F)C(F)(F)O3)c2cccc(C(C)=O)c2c1=O` [Compound A, ethyl 5-acetyl-4-oxo-1-(2,2,3,3-tetrafluoro-1,4-benzodioxin-6-yl)cinnoline-3-carboxylate]: the inhibition at 1 µM in test [1] was 1%; in [2] it was 35%; in test [3], 37%; in test [4], 9%; in [5], 52%; in test [6], 54%. Moreover, the inhibition at 1 µM in test [7] came to 0%.
Turning to `CC(O)C(N)CCCCC(=O)O.Cl` (stereo not shown) [Compound B, [5-carboxy-1-(1-hydroxyethyl)pentyl]ammonium chloride], the “% Inhibition relative to DMSO treatment” value in test [8] (200 μM) turned out to be 66%; in test [9] (200 μM), 95%; in test [10] (200 μM), 46%.
Turning to `CCn1c(C)c(-c2ccc(F)cc2F)c(=O)c(C(=O)O)c1-c1ccc(Cl)c(Cl)c1` [Compound C, 2-(3,4-dichlorophenyl)-5-(2,4-difluorophenyl)-1-ethyl-6-methyl-4-oxo-pyridine-3-carboxylic acid], the inhibition at 0.2 µM in [1] was determined as 0%; in test [2] it was 7%; in [3], 60%; in [4], 29%; in test [5], 49%; in test [6], 63%. Further, the inhibition at 0.2 µM in [7] came to 0%. Also, the inhibition at 1 µM in test [1] came to 32%; in test [2] it was 32%; in test [3], 96%; in test [4], 72%; in [5], 86%; in test [6] it was 68%. In addition, in [7], the inhibition at 1 µM is 0%. Besides, the inhibition at 5 µM in test [1] was found to be 86%; in test [2] it was 52%; in test [3] it was 99%; in [4], 90%; in test [5], 97%; in test [6] it was 71%. Further, the inhibition at 5 µM in [7] was 0%.
Take `CCn1c(C)c(-c2cc(OC(F)(F)F)ccc2Cl)c(=O)c(C(=O)O)c1-c1ccc(Cl)c(Cl)c1` [Compound D, 5-[2-chloro-5-(trifluoromethoxy)phenyl]-2-(3,4-dichlorophenyl)-1-ethyl-6-methyl-4-oxo-pyridine-3-carboxylic acid]: the “% Inhibition relative to DMSO treatment” value is 0% in test [8] (0.5 μM); 7% in test [8] (5 μM); 82% in [9] (0.5 μM); 95% in [9] (5 μM); 4% in test [10] (0.5 μM); 26% in [10] (5 μM).
As to `CCn1c(Cn2ccc(C(F)(F)F)n2)cc(=O)c(C(=O)O)c1-c1ccc(Cl)c(Cl)c1` [Compound L, 2-(3,4-dichlorophenyl)-1-ethyl-4-oxo-6-[[3-(trifluoromethyl)pyrazol-1-yl]methyl]pyridine-3-carboxylic acid], the “% Inhibition relative to DMSO treatment” value in test [8] (31 μM) amounted to 4%; in test [8] (500 μM) it was 53%; in test [9] (31 μM) it was 98%; in [9] (500 μM) it was 93%; in [10] (31 μM) it was 58%; in test [10] (500 μM), 94%. Further, the inhibition at 0.01 µM in test [6] and in test [7] was 0% in each case. For the same compound, the inhibition at 0.075 µM in test [6] is 51%; in [7] it was 0%. For the same compound, the inhibition at 0.5 µM in test [6] turned out to be 65%; in test [7], 29%.
With `CCn1c(-c2ccc(Cl)c(Cl)c2)c(C(=O)O)c(=O)c2cc(F)ccc21` [Compound M, 2-(3,4-dichlorophenyl)-1-ethyl-6-fluoro-4-oxo-quinoline-3-carboxylic acid], the “% Inhibition relative to DMSO treatment” value in [8] (31 μM) was 7%; in test [8] (500 μM), 46%; in [9] (31 μM), 94%; in [9] (500 μM) it was 93%; in test [10] (31 μM), 37%; in test [10] (500 μM) it was 92%. The inhibition at 0.2 µM came to 4% in [1]; 0% in test [2]; 48% in test [3]; 26% in [4]; 36% in [5]; 52% in test [6]. The inhibition at 0.2 µM in test [7] was 14%. Besides, the inhibition at 1 µM turned out to be 43% in test [1]; 5% in test [2]; 85% in test [3]; 51% in [4]; 71% in test [5]; 53% in test [6]. In addition, the inhibition at 1 µM in test [7] turned out to be 3%. The inhibition at 5 µM worked out at 78% in test [1]; 30% in test [2]; 96% in test [3]; 79% in [4]; 90% in test [5]; 88% in test [6]. The inhibition at 5 µM in [7] turned out to be 0%.

For the origin of these results see US20260226493A1, “HERBICIDE RESISTANT PLANTS” (SYNGENTA CROP PROTECTION AG, priority 2023, published 2026).
